Where two headings read alike, the source gives them in different places.
What was measured:
[1] = test system: human peripheral blood mononuclear cells TNF-α; experiment: Repression of TNF-α in human peripheral blood mononuclear cells (LPS, ELISA); format: cell-based; settings: PBMC, 3-fold diluted; for IC50: read-out: hPBMC IC50; for Emax: maximum effect value
Method: Experimental purpose: To express the anti-inflammatory activity of the test compound at the cellular level according to the level of TNF-α in human peripheral blood mononuclear cells (hPBMC).
• [0488] 1) The frozen cells were quickly thawed by continuous stirring in a 37° C. water bath. • [0489] 2) 25 mL of fresh pre-heated thawed culture medium was added to a 50 mL centrifuge tube. Then the cells were added gently, drop by drop. • [0490] 3) Cells were centrifuged at 2000 rpm for 10 min (ascending speed: 9, descending speed: 1). • [0491] 4) The supernatant was discarded and the cell particles were resuspended in 25 mL of freshly pre-heated RPMI 1640 culture medium.
• [0493] 5) After thawing and resuscitating the suspended cells, the number of cells was counted and the total number of cells required for the experiment was calculated. • [0494] 6) The cell suspension was diluted with an appropriate volume of cell culture medium. • [0495] 7) The cell suspension was poured into a sterile disposable container. • [0496] 8) 100,000 cells/(100 µL) of cell suspension was transferred to each well of a 96-well plate. • [0497] 9) The cell plates were placed in humidified air, 5% CO2 incubator, 37° C. for 2 hours.
[…] In the second step, the serum-free culture medium was diluted 125 times, and the concentration of DMSO was 0.8%. Then 16.8 µL of the compound diluted in culture medium was transferred to a 100 µL cell plate, and the concentration of DMSO was 0.114%.
After adding the compound, the cell plates were incubated in a 37° C. 5% CO2 incubator for 1 hour.
In the first step, LPS was diluted with ultrapure water to a storage concentration of 1 mg/mL. In the second step, the storage concentration of LPS was diluted to 1 µg/mL in serum-free culture medium. In the third step, serum-free culture medium was 1666.666-fold diluted. Then 16.8 µL of LPS that has been diluted with culture medium was transferred to a 116.8 µL cell plate. At this time, the final concentration of DMSO was 0.1%. After adding LPS, the cell plate was put into a 37° C., 5% CO2 incubator and incubated for 18 hours.
• [0505] 1. The TNF-α antibody was diluted to 1× in the coating solution, and then 100 µL per well was added to a 96-well high-binding performance plate, and the plate was sealed with a membrane and placed at 4° C. for 18 hours. • [0506] 2. 2000 mL of wash buffer was prepared to 1x for later use.
• [0508] 3. After the plate was coated overnight, the coating solution was poured out and washed 3 times with 300 µL of washing buffer per well. • [0509] 4. After the plate was washed, 200 µL of sealing buffer was added to each well, and the plate was sealed with membrane. Incubated for one hour in a 25° C. incubator. • [0510] 5. The cell plates incubated for 18 hours were placed in a centrifuge for centrifugation, temperature: 25° C., speed: 2000 rpm, time: 10 min, ascending speed: 9, descending speed: 1. After centrifugation, 100 µL of cell supernatant from each well was transferred to a 3599 cell plate, and then placed in a 4° C. refrigerator for later use. • [0511] 6. The cell supernatant was diluted 40 times with sealing buffer and placed in a 4° C. refrigerator for later use, and the standard was also placed in a 4° C. refrigerator for later use. • [0512] 7. After the sealing was completed, the sealing solution was poured out and washed three times with 300 µL of washing buffer per well. • [0513] 8. The diluted cell supernatant samples and standards were added to the ELISA plate, and the plate was sealed with membrane. Then incubated for 2 hours in a 25° C. incubator. • [0514] 9. The liquid in the plate was poured out and washed 5 times with 300 µL of washing buffer per well. • [0515] 10. Antibodies were prepared and 100 µL was added to each well and the plate was sealed with sealing membrane. Then incubated for one hour in a 25° C. incubator. • [0516] 11. The liquid in the plate was poured out and washed 7 times with 300 µL of washing buffer per well. • [0517] 12. […]

[2] = In vivo pharmacokinetic properties study in male SD rats; settings: rat, plasma, iv 2 mg/kg; for half-life: read-out: T½ (converted); for Vd: read-out: Vdss
Method: Experimental purpose: The purpose of this study was to determine the pharmacokinetic parameters of compounds in male SD rats.
Experimental methods: In this project, two male SD rats were intravenously administered with a dose of 2 mg/kg and a concentration of 0.4 mg/mL. Plasma samples were collected at 0 h (before administration) and 0.0833, 0.25, 0.5, 1, 2, 4, 6, 8, 24 h after administration. Then the collected samples were analyzed by LC-MS/MS and the data were collected. The collected analytical data were used to calculate the relevant pharmacokinetic parameters using Phoenix WinNonlin 6.3 software.

CYP3A4 = target: T1, CYP3A4 (Homo sapiens, UniProt P08684); experiment: Human liver microsomal CYP repression experiment; format: in vitro ADME
T1 construct: incubation system containing human liver microsomes, probe substrates, and co-factors; tissue Corning Inc. or other suppliers; host or cells: mixed (pooled) human liver microsomes
Method: The purpose of the research project was to evaluate the repression of the test sample on human liver microsomal cytochrome P450 isoenzyme (CYP3A4) using a 5-in-1 probe substrate of CYP isoenzyme.
Mixed human liver microsomes (HLM) were purchased from Corning Inc. (Steuben, New York, USA) or other suppliers and stored at temperatures below -70° C. before use.
The diluted series concentration of the test sample was added to the incubation system containing human liver microsomes, probe substrates, and co-factors of the circulating system, and the control without the test sample but with solvent was used as the enzyme activity control (100%). The concentration of metabolites produced by the probe substrate in the sample was determined by liquid chromatography-tandem mass spectrometry (LC-MS/MS). Non-linear regression analysis of the mean percent activity of the test sample versus concentration was performed using SigmaPlot (V. 11). The IC50 values were calculated by a three- or four-parameter inverse logarithmic equation.

[3] = absolute IC50, test Top concentration 10000 nM, 8 concentration (unmarked)
[4] = test Top concentration 10000 nM, 8 concentration (unmarked)
[5] = absolute IC50, test Top concentration 100 nM, 8 concentration (***)
[6] = test Top concentration 100 nM, 8 concentration (***)
[7] = absolute IC50, test Top concentration 1000 nM, 8 concentration (*)
[8] = test Top concentration 1000 nM, 8 concentration (*)

T1 sequence (P08684 whole entry): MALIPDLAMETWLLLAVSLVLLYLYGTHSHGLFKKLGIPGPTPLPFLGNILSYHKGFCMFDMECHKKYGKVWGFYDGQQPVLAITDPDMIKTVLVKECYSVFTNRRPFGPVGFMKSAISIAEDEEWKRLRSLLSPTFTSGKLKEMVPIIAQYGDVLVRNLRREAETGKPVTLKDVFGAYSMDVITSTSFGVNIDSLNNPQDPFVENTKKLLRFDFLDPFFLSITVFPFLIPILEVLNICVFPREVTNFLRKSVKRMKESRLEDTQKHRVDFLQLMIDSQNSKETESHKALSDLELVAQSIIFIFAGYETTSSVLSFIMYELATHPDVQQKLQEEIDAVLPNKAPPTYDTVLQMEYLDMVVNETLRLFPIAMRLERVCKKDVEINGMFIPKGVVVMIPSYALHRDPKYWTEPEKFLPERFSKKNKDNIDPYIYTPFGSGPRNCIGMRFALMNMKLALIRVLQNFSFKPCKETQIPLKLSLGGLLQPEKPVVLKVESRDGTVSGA

`C[C@H](NC(=O)C(C)(F)F)[C@H](Oc1ccc2c(cnn2-c2ccc3c(c2)CCCO3)c1)c1cc(F)cc(F)c1` [WX002] showed an IC50 [1, 3] of 15.1 nM and an Emax [1, 4] of 84.6%.

`C[C@H](NC(=O)C(C)(F)F)[C@H](Oc1ccc2c(cnn2-c2ccc3nccn3c2)c1)c1cc(F)cc(F)c1` [WX003] gave an IC50 [1, 5] of 0.97 nM and an Emax [1, 6] of 84.3%.

`CC(C)[C@H](NC(=O)C(C)(F)F)[C@H](Oc1ccc2c(cnn2-c2ccc3nccn3c2)c1)c1ccccc1` [WX004] showed an IC50 [1, 7] of 15.9 nM and an Emax [1, 8] of 78.5%.

With `CC(C)[C@H](NC(=O)C(C)(F)F)[C@H](Oc1ccc2c(cnn2-c2ccc3nncn3c2)c1)c1cc(F)cc(F)c1` [WX017] the IC50 [1, 3] was 7.63 nM and the Emax [1, 4] was 83.1%.

Work on `CC(C)[C@H](NC(=O)C(C)(F)F)[C@H](Oc1ccc2c(cnn2-c2ccc3nncn3c2)c1)c1ccccc1` [WX018] yielded an IC50 [1, 7] of 18.6 nM and an Emax [1, 8] of 69.3%.

Work on `C[C@H](NC(=O)C(C)(F)F)[C@H](Oc1ccc2c(cnn2-c2ccc3nncn3c2)c1)c1cc(F)cc(F)c1` [WX019] yielded a clearance [2] of 9.74 mL/min/kg, a half-life [2] of 3 h and a Vd [2] of 1.28 L/kg. For the same compound, the IC50 [1, 5] was 0.98 nM, the Emax [1, 6] was 90% and the “repression on CYP3A4 (in words)” value (CYP3A4; conclusion on Table 3) was “significantly improve the repression of CYP3A4”. For the same compound, the IC50 (CYP3A4; mixed human liver microsomes, 5-in-1 probe substrate) was 9120 nM.

Work on `C[C@H](NC(=O)C(C)(F)F)[C@H](Oc1ccc2c(cnn2-c2ccc3ncnn3c2)c1)c1cc(F)cc(F)c1` [WX034] yielded an IC50 [1, 7] of 12.6 nM and an Emax [1, 8] of 79.3%.

With `C[C@H](NC(=O)C(C)(F)F)[C@H](Oc1ccc2c(cnn2-c2ccc3nnnn3c2)c1)c1cc(F)cc(F)c1` [WX035] the IC50 [1, 7] was 11.6 nM and the Emax [1, 8] was 100%.

With `C[C@H](NC(=O)C(C)(F)F)[C@H](Oc1ccc2c(cnn2-c2cnn(C)c2)c1)c1ccccc1` [WX043] the IC50 [1, 7] was 4.9 nM and the Emax [1, 8] was 88.8%.

In the case of `C[C@H](NC(=O)C(C)(F)F)[C@H](Oc1ccc2c(cnn2-c2cn(C)nn2)c1)c1cc(F)cc(F)c1` [WX051], the clearance [2] is reported as 9.29 mL/min/kg, the half-life [2] is reported as 3.54 h and the Vd [2] is reported as 2.61 L/kg. For the same compound, the IC50 ([1]; absolute IC50, test Top concentration 500 nM, 8 concentration (**)) was 10.4 nM and the Emax ([1]; test Top concentration 500 nM, 8 concentration (**)) was 74.9%.
